How the values were obtained:
[1] = biological target: T1, human D5R (Homo sapiens, UniProt P21918); assay: cAMP Hunter eXpress DRD5 assay at human D5R; type: cell-based; details: 10 μM compound
T1 construct: host or cells: cells supplied with the cAMP Hunter eXpress DRD5 assay kit
Procedure: Functional studies at human D5R receptors were carried out in human D5R, using a cAMP Hunter eXpress DRD5 assay kit from DiscoverX. Briefly, cells were plated and maintained for 24 h at 37 °C in a 5% CO2 atmosphere in the cell plating reagent provided in the kit. After this time, test compounds were added to the cells and incubated for 15 min at 37 °C, followed by treatment with dopamine and incubation for an additional 30 min at 37 °C. Cells were then treated with the cAMP working detection solution provided with the kit for 1 h, and then cAMP solution A was added and incubated for 3 h at rt. cAMP formation was measured by luminescence detection (integration time = 500 ms) in a Tecan M1000 Genius Pro reader. Data were normalized to dopamine maximum effect and fitted to a 4-parameter logistic equation using Prism v2.1 software (GraphPad Inc).

[2] = biological target: T2, human serum albumin (HSA) (Homo sapiens, UniProt P02768); assay: HSA binding assay (TRANSIL XL); type: in vitro ADME; details: for HSA binding (%): at a concentration of 5 μM
T2 construct: purchased Sovicell TMP-0210-2096
Procedure: HSA binding assay. The assessment of compounds binding to HSA was performed by incubating a fixed concentration of the compound with different concentrations of immobilized HSA, using the TRANSILXL HSA Binding Kit (TMP-0210- 2096, Sovicell). An 8-well unit of the TRANSIL assay plate was used for each compound : six wells contain increasing concentrations of HSA immobilized on silica beads suspended in PBS at pH 7.4, and two wells contain buffer only and serve as references to account for nonspecific binding. The TRANSIL assay plate was thawed for 3 h at rt and centrifuged at 750g for 5 s. Then, 15 μ L of an 80 μ M stock solution of the compound in PBS (for a final concentration of 5 μ M) were added to each well of the 8-well unit, and the plate was incubated on a plate shaker at 1000 rpm for 12 min at rt. After this time, the plate was centrifuged at 750gfor 10 min, and 50 μL of the supernatants were transferred for analytical quantification by HPLC-MS using selected ion monitoring (SIM). The binding percentage was calculated from the remaining free compound concentration in the supernatant of each well, using the spreadsheet and algorithms supplied with the kit.
Stability in mouse serum. Stability for selected compounds and reference compound enalapril was assayed by adding 625 μL of a 250 μM solution of test compound in PBS pH 7.4 to 1.875 mL of mouse serum (Europa Bioproducts, EQSM-0100) pre-warmed a t 37 °C. Next, solutions were incubated at 37 °C for 4 h, taking aliquots of 250 μL at t = 0, 1, 2, 3, and 4 h. Each aliquot was quenched in 375 μL of cold ACN, vortexed, incubated for 10 min in ice and centrifuged at 39000g for 10 min. Supernatants were then analyzed by HPLC-MS using SIM mode, and quantification was estimated by using the peak area integration normalized with an internal standard.
Stability assay in mouse liver homogenate. Stability of test compounds and reference compound propranolol was determined by incubation in liver homogenates following previously reported procedure. […]

[3] = biological target: T3, human D1R (Homo sapiens, UniProt P21728); assay: potentiator-mode cAMP assay (HTRF) in SK-N-MC neuroblastoma cells endogenously expressing human D1R; type: cell-based; details: for EC50: potency of the compound at the DA EC70 concentration
T3 construct: endogenously expressed human D1R in the SK-N-MC cell line (ATCC); host or cells: SK-N-MC human neuroblastoma cells
Procedure: An in-house chemical library of 250 compounds was screened using an in vitro assay measuring accumulation of cAMP in a human neuroblastoma SK-N-MC cell line stably expressing physiological levels of the D1R but not the D5R.[41] To assess allosteric modulation of the D1R, cells were treated with a fixed concentration of the test compounds (10 μM) for 15 min and then co-incubated with increasing concentrations of the endogenous agonist DA. The cAMP concentration was quantified by homogeneous time-resolved fluorescence energy transfer (HTRF) and the effect of each compound on the DA concentration–response curve was measured.
The PAM efficacy was measured as the percentage of increase over DA EC70 and the potency as the EC50 observed in the concentration–response curve.
Functional studies at human D1 and D2 receptors were carried out in endogenously expressed human D1R in the SK-N-MC cell line (ATCC), and recombinant human D2R stably transfected in an in-house CHO cell line. Cells were thawed and seeded into a black 96-well plate (1 × 10^4 cells/well for SK-N-MC cell line, 5 × 10^3 cells/well for CHO cell line) in Opti-MEM containing 500 μM IBMX (3-isobutyl-1-methylxanthine).

[4] = biological target: T4, human D2R (Homo sapiens, UniProt P14416); assay: functional cAMP assay at recombinant human D2R in CHO cells; type: cell-based; details: 10 μM compound
T4 construct: expressed in transfected cells; host or cells: in-house CHO cell line
Procedure: Functional studies at human D1 and D2 receptors were carried out in endogenously expressed human D1R in the SK-N-MC cell line (ATCC), and recombinant human D2R stably transfected in an in-house CHO cell line. Cells were thawed and seeded into a black 96-well plate (1 × 10^4 cells/well for SK-N-MC cell line, 5 × 10^3 cells/well for CHO cell line) in Opti-MEM containing 500 μM IBMX (3-isobutyl-1-methylxanthine). Test compounds were added to the cells and incubated for 15 min at 25 °C for D1R, and for 5 min at 37 °C for D2R. After this time, dopamine was added to the corresponding wells and incubated for additional 15 min at 25 °C for D1R, and 10 min at 37 °C for D2R. Next, treated cells were lysed (for the D2R assay, cells were previously treated with 10 μM forskolin for 5 min at 37 °C) and the cAMP concentration was measured by HTRF, using a kit from Cisbio. HTRF was read in a Tecan M1000 Genius Pro reader (λexcitation = 320 nm, λemission = 620 and 665 nm, 30 flashes), and data were normalized to the dopamine maximum effect and fitted to a 4-parameter logistic equation by using Prism v2.1 software (GraphPad Inc).

T3 sequence (P21728 whole entry): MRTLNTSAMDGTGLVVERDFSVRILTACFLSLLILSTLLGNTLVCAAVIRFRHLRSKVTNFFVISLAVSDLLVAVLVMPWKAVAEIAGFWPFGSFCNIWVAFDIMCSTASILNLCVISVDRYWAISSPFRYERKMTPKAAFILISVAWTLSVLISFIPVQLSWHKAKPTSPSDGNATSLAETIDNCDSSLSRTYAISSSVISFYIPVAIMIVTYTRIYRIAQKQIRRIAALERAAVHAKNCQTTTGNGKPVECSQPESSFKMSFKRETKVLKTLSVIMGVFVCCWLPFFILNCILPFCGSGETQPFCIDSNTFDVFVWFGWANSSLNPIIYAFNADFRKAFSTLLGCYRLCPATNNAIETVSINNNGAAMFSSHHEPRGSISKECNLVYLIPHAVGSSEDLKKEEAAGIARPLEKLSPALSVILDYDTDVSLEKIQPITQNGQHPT
T2 sequence (P02768 25-609): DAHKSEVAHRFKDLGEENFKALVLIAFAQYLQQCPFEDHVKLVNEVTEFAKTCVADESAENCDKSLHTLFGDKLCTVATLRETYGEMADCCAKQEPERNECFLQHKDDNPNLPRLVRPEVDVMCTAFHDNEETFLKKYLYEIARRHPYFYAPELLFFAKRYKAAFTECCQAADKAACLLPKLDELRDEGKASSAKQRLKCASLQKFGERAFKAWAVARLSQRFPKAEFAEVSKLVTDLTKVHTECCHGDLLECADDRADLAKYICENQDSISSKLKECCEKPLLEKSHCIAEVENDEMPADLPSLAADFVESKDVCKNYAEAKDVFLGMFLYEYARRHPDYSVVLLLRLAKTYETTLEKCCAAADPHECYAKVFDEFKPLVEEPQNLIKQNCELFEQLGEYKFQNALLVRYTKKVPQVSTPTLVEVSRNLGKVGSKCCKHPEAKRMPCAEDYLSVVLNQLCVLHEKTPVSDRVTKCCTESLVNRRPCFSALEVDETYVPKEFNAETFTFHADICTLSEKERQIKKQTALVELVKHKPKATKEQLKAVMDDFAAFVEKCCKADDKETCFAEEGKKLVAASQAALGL
T4 sequence (P14416 whole entry): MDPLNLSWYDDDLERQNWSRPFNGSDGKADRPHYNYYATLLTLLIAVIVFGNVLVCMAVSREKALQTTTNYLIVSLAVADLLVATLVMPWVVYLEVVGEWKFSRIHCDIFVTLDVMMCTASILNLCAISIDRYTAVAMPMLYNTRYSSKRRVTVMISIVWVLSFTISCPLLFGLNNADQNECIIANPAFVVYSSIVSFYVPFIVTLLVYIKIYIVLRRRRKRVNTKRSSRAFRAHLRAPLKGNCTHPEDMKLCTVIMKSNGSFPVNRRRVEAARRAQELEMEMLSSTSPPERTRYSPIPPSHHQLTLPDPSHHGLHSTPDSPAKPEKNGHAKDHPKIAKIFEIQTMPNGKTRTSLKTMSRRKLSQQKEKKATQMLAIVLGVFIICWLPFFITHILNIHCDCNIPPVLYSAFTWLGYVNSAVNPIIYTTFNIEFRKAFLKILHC
T1 sequence (P21918 whole entry): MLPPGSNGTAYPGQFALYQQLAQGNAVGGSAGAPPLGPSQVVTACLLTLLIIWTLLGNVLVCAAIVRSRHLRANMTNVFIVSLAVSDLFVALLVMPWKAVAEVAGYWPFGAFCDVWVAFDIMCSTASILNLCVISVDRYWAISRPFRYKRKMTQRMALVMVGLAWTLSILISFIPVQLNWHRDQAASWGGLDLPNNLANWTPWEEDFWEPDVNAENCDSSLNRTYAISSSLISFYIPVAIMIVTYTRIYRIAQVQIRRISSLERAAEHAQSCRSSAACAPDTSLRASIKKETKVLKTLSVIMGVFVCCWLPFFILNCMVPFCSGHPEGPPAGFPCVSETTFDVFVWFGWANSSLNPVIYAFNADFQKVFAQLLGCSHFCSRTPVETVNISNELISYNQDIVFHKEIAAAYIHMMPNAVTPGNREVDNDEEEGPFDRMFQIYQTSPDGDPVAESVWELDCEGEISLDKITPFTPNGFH

Row | Kd ([2]; read-out: HSA dissociation constant Kd) | Emax ([3]; SK-N-MC, concentration–response curve of the compound over DA EC70, read-out: % maximum increase (efficacy over DA EC70)) | SMILES | enhancement of DA Emax at human D5 receptor [1] | HSA binding (%) [2] | EC50 [3] | enhancement of DA Emax at human D2 receptor [4]
1 |  |  | O=Cc1ccc(-c2ccccc2OCF)cc1 [Compound 3, 2′-(Fluoromethoxy)[1,1′-biphenyl]-4-carbaldehyde] | did not enhance DA Emax | > 99% | 12.7 ± 2.4 µM | did not enhance DA Emax
2 | 156 µM | 45 ± 7% | CS(=N)(=O)c1ccc(-c2ccccc2OCF)cc1 (stereo not shown) [Compound 26, 2-(Fluoromethoxy)-4′-(S-methanesulfonimidoyl)-1,1′-biphenyl] | subtype selectivity | 79% | 0.06 ± 0.01 µM | subtype selectivity
